Measured values published in patent publication US8299022B2, “Analogs of ghrelin substituted at the N-terminal” (IPSEN Pharma S.A.S., priority 2006, dated 2012).
Square brackets hold non-standard residues; d marks the D form. Peptide text beside a SMILES is read from it. * marks the point of attachment. Octanoyl = CCCCCCCC(=O)*; Aib = CC(C)(N)C(=O)O; Inp = O=C(O)C1CCNCC1

Assay: Rat plasma ½ life (stability in plasma in a rat model)
Format: in vitro ADME
Method: A selection of the preferred embodiments listed above was analyzed to determine stability, i.e. ½ life in plasma in a rat model using techniques known to those skilled in the art.

SMILES	Rat Plasma ½ life [h]
CCCCCCNC(=O)CC[C@H](NC(=O)C(C)(C)NC(=O)C1(N)CCNCC1)C(=O)N[C@@H](Cc1ccccc1)C(=O)N[C@@H](CC(C)C)C(=O)N[C@@H](CO)C(=O)N1CCC[C@H]1C(=O)N[C@@H](CCC(=O)O)C(=O)N[C@@H](Cc1c[nH]cn1)C(=O)NC(C)(C)C(=O)N[C@@H](CCCNC(=N)N)C(=O)N[C@H](C(=O)N[C@@H](CCC(N)=O)C(=O)N[C@@H](CCC(N)=O)C(=O)N[C@@H](CCCNC(=N)N)C(=O)N[C@@H](CCCCN)C(=O)N[C@@H](CCC(=O)O)C(=O)N[C@@H](CO)C(=O)N[C@@H](CCCCN)C(=O)N[C@@H](CCCCN)C(=O)N1CCC[C@H]1C(=O)N1CCC[C@H]1C(=O)N[C@@H](C)C(=O)N[C@@H](CCCCN)C(=O)N[C@@H](CC(C)C)C(=O)N[C@@H](CCC(N)=O)C(=O)N1CCC[C@H]1C(=O)N[C@@H](CCCNC(=N)N)C(N)=O)C(C)C [Example 4, (1-Apc^1, Aib^2, 10, Glu(NH-hexyl)^3)-hGhrelin(1-28)-NH2]	10.0
CCCCCCCC(=O)OC[C@H](NC(=O)[C@H](CO)NC(=O)C1CCNCC1)C(=O)N[C@@H](Cc1ccccc1)C(=O)N[C@@H](CC(C)C)C(=O)N[C@@H](CO)C(=O)N1CCC[C@H]1C(=O)N[C@@H](CCC(=O)O)C(=O)N[C@@H](Cc1c[nH]cn1)C(=O)N[C@@H](CCC(N)=O)C(=O)N[C@@H](CCCNC(=N)N)C(=O)N[C@H](C(=O)N[C@@H](CCC(N)=O)C(=O)N[C@@H](CCC(N)=O)C(=O)N[C@@H](CCCNC(=N)N)C(=O)N[C@@H](CCCCN)C(=O)N[C@@H](CCC(=O)O)C(=O)N[C@@H](CO)C(=O)N[C@@H](CCCCN)C(=O)N[C@@H](CCCCN)C(=O)N1CCC[C@H]1C(=O)N1CCC[C@H]1C(=O)N[C@@H](C)C(=O)N[C@@H](CCCCN)C(=O)N[C@@H](CC(C)C)C(=O)N[C@@H](CCC(N)=O)C(=O)N1CCC[C@H]1C(=O)N[C@@H](CCCNC(=N)N)C(N)=O)C(C)C [Example 5, (Inp^1)hGhrelin(1-28)-NH2]	6.2
CCCCCCCC(=O)OC[C@H](NC(=O)C(C)(C)NC(=O)C1CCNCC1)C(=O)N[C@@H](Cc1ccccc1)C(=O)N[C@@H](CC(C)C)C(=O)N[C@@H](CO)C(=O)N1CCC[C@H]1C(=O)N[C@@H](CCC(=O)O)C(=O)N[C@@H](Cc1c[nH]cn1)C(=O)N[C@@H](CCC(N)=O)C(=O)N[C@@H](CCCNC(=N)N)C(=O)N[C@H](C(=O)N[C@@H](CCC(N)=O)C(=O)N[C@@H](CCC(N)=O)C(=O)N[C@@H](CCCNC(=N)N)C(=O)N[C@@H](CCCCN)C(=O)N[C@@H](CCC(=O)O)C(=O)N[C@@H](CO)C(=O)N[C@@H](CCCCN)C(=O)N[C@@H](CCCCN)C(=O)N1CCC[C@H]1C(=O)N1CCC[C@H]1C(=O)N[C@@H](C)C(=O)N[C@@H](CCCCN)C(=O)N[C@@H](CC(C)C)C(=O)N[C@@H](CCC(N)=O)C(=O)N1CCC[C@H]1C(=O)N[C@@H](CCCNC(=N)N)C(N)=O)C(C)C [Example 6, (Inp^1, Aib^2)hGhrelin(1-28)-NH2]	1.4
CCCCCCNC(=O)CC[C@H](NC(=O)C(C)(C)NC(=O)C1CCNCC1)C(=O)N[C@@H](Cc1ccccc1)C(=O)N[C@@H](CC(C)C)C(=O)N[C@@H](CO)C(=O)N1CCC[C@H]1C(=O)N[C@@H](CCC(=O)O)C(=O)N[C@@H](Cc1c[nH]cn1)C(=O)N[C@@H](CCC(N)=O)C(=O)N[C@@H](CCCNC(=N)N)C(=O)N[C@H](C(=O)N[C@@H](CCC(N)=O)C(=O)N[C@@H](CCC(N)=O)C(=O)N[C@@H](CCCNC(=N)N)C(=O)N[C@@H](CCCCN)C(=O)N[C@@H](CCC(=O)O)C(=O)N[C@@H](CO)C(=O)N[C@@H](CCCCN)C(=O)N[C@@H](CCCCN)C(=O)N1CCC[C@H]1C(=O)N1CCC[C@H]1C(=O)N[C@@H](C)C(=O)N[C@@H](CCCCN)C(=O)N[C@@H](CC(C)C)C(=O)N[C@@H](CCC(N)=O)C(=O)N1CCC[C@H]1C(=O)N[C@@H](CCCNC(=N)N)C(N)=O)C(C)C [Example 7, (Inp^1, Aib^2, Glu(NH-hexyl)^3)hGhrelin(1-28)-NH2]	6.7

Continued, values first:

Rat Plasma ½ life [h]	SMILES
1.2	CCCCCCCC(=O)OC[C@H](NC(=O)C(C)(C)NC(=O)C1CCNCC1)C(=O)N[C@@H](Cc1ccccc1)C(=O)N[C@@H](CC(C)C)C(=O)N[C@@H](CO)C(=O)N1CCC[C@H]1C(=O)N[C@@H](CCC(=O)O)C(=O)N[C@@H](Cc1c[nH]cn1)C(=O)NC(C)(C)C(=O)N[C@@H](CCCNC(=N)N)C(=O)N[C@H](C(=O)N[C@@H](CCC(N)=O)C(=O)N[C@@H](CCC(N)=O)C(=O)N[C@@H](CCCNC(=N)N)C(=O)N[C@@H](CCCCN)C(=O)N[C@@H](CCC(=O)O)C(=O)N[C@@H](CO)C(=O)N[C@@H](CCCCN)C(=O)N[C@@H](CCCCN)C(=O)N1CCC[C@H]1C(=O)N1CCC[C@H]1C(=O)N[C@@H](C)C(=O)N[C@@H](CCCCN)C(=O)N[C@@H](CC(C)C)C(=O)N[C@@H](CCC(N)=O)C(=O)N1CCC[C@H]1C(=O)N[C@@H](CCCNC(=N)N)C(N)=O)C(C)C [Example 8, (Inp^1, Aib^2, 10)hGhrelin(1-28)-NH2]
1.2	CCCCCCCC(=O)OC[C@H](NC(=O)C(C)(C)NC(=O)C1CCNCC1)C(=O)N[C@@H](Cc1ccccc1)C(=O)N[C@@H](CC(C)C)C(=O)N[C@@H](CO)C(=O)N1CCC[C@H]1C(=O)NC(C)(C)C(=O)N[C@@H](Cc1c[nH]cn1)C(=O)N[C@@H](CCC(N)=O)C(=O)N[C@@H](CCCNC(=N)N)C(=O)N[C@H](C(=O)N[C@@H](CCC(N)=O)C(=O)N[C@@H](CCC(N)=O)C(=O)N[C@@H](CCCNC(=N)N)C(=O)N[C@@H](CCCCN)C(=O)N[C@@H](CCC(=O)O)C(=O)N[C@@H](CO)C(=O)N[C@@H](CCCCN)C(=O)N[C@@H](CCCCN)C(=O)N1CCC[C@H]1C(=O)N1CCC[C@H]1C(=O)N[C@@H](C)C(=O)N[C@@H](CCCCN)C(=O)N[C@@H](CC(C)C)C(=O)N[C@@H](CCC(N)=O)C(=O)N1CCC[C@H]1C(=O)N[C@@H](CCCNC(=N)N)C(N)=O)C(C)C [Example 9, (Inp^1, Aib^2, 8)hGhrelin(1-28)-NH2]
0.6	CCCCCCCC(=O)OC[C@H](NC(=O)[C@H](CCCCN)NC(=O)[C@H](CCCNC(=N)N)NC(=O)[C@H](CCC(N)=O)NC(=O)[C@H](CCC(N)=O)NC(=O)[C@@H](NC(=O)[C@H](CCCNC(=N)N)NC(=O)[C@H](CCC(N)=O)NC(=O)[C@H](Cc1c[nH]cn1)NC(=O)[C@H](CCC(=O)O)NC(=O)[C@@H]1CCCN1C(=O)[C@H](CO)NC(=O)[C@H](CC(C)C)NC(=O)[C@H](Cc1ccccc1)NC(=O)[C@H](COC(=O)CCCCCCC)NC(=O)C(C)(C)NC(=O)C1CCNCC1)C(C)C)C(=O)N[C@@H](CO)C(=O)N[C@@H](CCCCN)C(=O)N[C@@H](CCCCN)C(=O)N1CCC[C@H]1C(=O)N1CCC[C@H]1C(=O)N[C@@H](C)C(=O)N[C@@H](CCCCN)C(=O)N[C@@H](CC(C)C)C(=O)N[C@@H](CCC(N)=O)C(=O)N1CCC[C@H]1C(=O)N[C@@H](CCCNC(=N)N)C(N)=O [Example 10, (Inp^1, Aib^2, Ser(n-octanoyl)^17)hGhrelin(1-28)-NH2]
0.7	CCCCCCCC(=O)OC[C@H](NC(=O)[C@H](CO)NC(=O)C1CCNCC1)C(=O)N[C@@H](Cc1ccccc1)C(=O)N[C@@H](CC(C)C)C(=O)N[C@@H](CO)C(=O)N1CCC[C@H]1C(=O)N[C@@H](CCC(=O)O)C(=O)N[C@@H](Cc1c[nH]cn1)C(=O)N[C@@H](CCC(N)=O)C(=O)N[C@@H](CCCNC(=N)N)C(=O)N[C@H](C(=O)N[C@@H](CCC(N)=O)C(=O)N[C@@H](CCC(N)=O)C(=O)N[C@@H](CCCNC(=N)N)C(=O)N[C@@H](CCCCN)C(=O)N[C@@H](COC(=O)CCCCCCC)C(=O)N[C@@H](CO)C(=O)N[C@@H](CCCCN)C(=O)N[C@@H](CCCCN)C(=O)N1CCC[C@H]1C(=O)N1CCC[C@H]1C(=O)N[C@@H](C)C(=O)N[C@@H](CCCCN)C(=O)N[C@@H](CC(C)C)C(=O)N[C@@H](CCC(N)=O)C(=O)N1CCC[C@H]1C(=O)N[C@@H](CCCNC(=N)N)C(N)=O)C(C)C [Example 11, (Inp^1, Ser(n-octanoyl)^17)hGhrelin(1-28)-NH2]
0.7	CCCCCCCC(=O)OC[C@H](NC(=O)[C@H](CCCCN)NC(=O)[C@H](CCCNC(=N)N)NC(=O)[C@H](CCC(N)=O)NC(=O)[C@H](CCC(N)=O)NC(=O)[C@@H](NC(=O)[C@H](CCCNC(=N)N)NC(=O)[C@H](CCC(N)=O)NC(=O)[C@H](Cc1c[nH]cn1)NC(=O)C(C)(C)NC(=O)[C@@H]1CCCN1C(=O)[C@H](CO)NC(=O)[C@H](CC(C)C)NC(=O)[C@H](Cc1ccccc1)NC(=O)[C@H](COC(=O)CCCCCCC)NC(=O)C(C)(C)NC(=O)C1CCNCC1)C(C)C)C(=O)N[C@@H](CO)C(=O)N[C@@H](CCCCN)C(=O)N[C@@H](CCCCN)C(=O)N1CCC[C@H]1C(=O)N1CCC[C@H]1C(=O)N[C@@H](C)C(=O)N[C@@H](CCCCN)C(=O)N[C@@H](CC(C)C)C(=O)N[C@@H](CCC(N)=O)C(=O)N1CCC[C@H]1C(=O)N[C@@H](CCCNC(=N)N)C(N)=O [Example 12, (Inp^1, Aib^2,8, Ser(n-octanoyl)^17)hGhrelin(1-28)-NH2] (H-[Inp][Aib]S(Octanoyl)FLSP[Aib]HQRVQQRKS(Octanoyl)SKKPPAKLQPR-NH2; N-terminus assumed)
